Data taken from patent US20120022113A1, “METHODS FOR S[…] T[…] ACCUMULATION AND PREVENTING HYPERCYTOKINEMIA” (priority 2009, published 2012).

How the values were obtained:
[1] = tested on: influenza virus in madin-darby canine kidney (MDCK) cells; assay: Virus replication in MDCK cells; details: up to 1 μg/ml, compared to PBS
[2] = tested on: H1N1 A/Puerto Rico/8/34 (PR8) influenza A virus; set-up: species or system B6 mice; details: mouse, in vivo

Structure (SMILES): CCc1ccc(CCOc2ccc(CC3SC(=O)NC3=O)cc2)nc1 (centres unmarked) [pioglitazone]
- inhibition of virus replication in MDCK cells [1]: did not inhibit
- mortality [2]: 50%
